Eight compounds from PubChem BioAssay (NCI) can be followed below.

“And” between values parts separate entries of the source, which are not always exact repeats. Equal values may be shown once.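 Following 48 hours of exposure in 96-well plates, responses at five concentrations were used to interpolate endpoints linearly. GI50: concentration for 50% inhibition of growth. Definition used: TGI = concentration required for complete inhibition of growth.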

Some test systems named below: NCI/ADR-RES ovarian; MDA-MB-435; SK-MEL-28 melanoma; SK-MEL-2 melanoma; OVCAR-8 ovarian; SW-620 colon; MDA-MB-231 breast; MOLT-4 leukemia; EKVX NSCLC; A498 renal.
Holding throughout (assay): NCI tumour cell line growth inhibition, 48 h

As for `CCc1nc(-n2c(CC)nc3ccccc3c2=O)nc(N)c1-c1ccc(Cl)cc1`, the GI50 in the test with NCI/ADR-RES ovarian is 7.17 µM; with MDA-MB-435 it was 7.12 µM; in the test on SK-MEL-28 melanoma it was greater than 100 µM; in the test with SK-MEL-2 melanoma, greater than 100 µM; in the test on OVCAR-8 ovarian, 6.65 µM; in the test with SW-620 colon, 5.42 µM. Besides, the GI50 in the test on MDA-MB-231 breast was greater than 100 µM; with MOLT-4 leukemia, 73.3 µM; in the test with EKVX NSCLC it was 99 µM; in the test with A498 renal, 27.2 µM. In addition, the TGI in the test with NCI/ADR-RES ovarian, in the test with MDA-MB-435, in the test on SK-MEL-28 melanoma, with SK-MEL-2 melanoma, in the test with OVCAR-8 ovarian and with SW-620 colon was greater than 100 µM throughout. In addition, the TGI is greater than 100 µM in the test with MDA-MB-231 breast, greater than 100 µM in the test with MOLT-4 leukemia, greater than 100 µM in the test with EKVX NSCLC and greater than 94.5 µM in the test with A498 renal.

As for `COc1ccc(S(=O)(=O)NC2=NCCN2C(=S)SN2CCn3c2nsc3=S)cc1OC`, the GI50 was 61.8 µM with NCI/ADR-RES ovarian; 19.8 µM with MDA-MB-435; 16.5 µM with SK-MEL-28 melanoma; 24.1 µM with SK-MEL-2 melanoma; 29.5 µM in the test on OVCAR-8 ovarian; 18.9 µM with SW-620 colon. Moreover, the GI50 was 26.3 µM in the test with MDA-MB-231 breast, 27.1 µM in the test with MOLT-4 leukemia, 50.1 µM in the test on EKVX NSCLC and 37.3 µM with A498 renal. Also, the TGI in the test with NCI/ADR-RES ovarian is greater than 100 µM; in the test with MDA-MB-435, 44.1 µM; with SK-MEL-28 melanoma it was 37.5 µM; in the test with SK-MEL-2 melanoma it was 75.1 µM; with OVCAR-8 ovarian it was greater than 100 µM; in the test on SW-620 colon it was greater than 100 µM. Also, the TGI in the test on MDA-MB-231 breast, with MOLT-4 leukemia, in the test with EKVX NSCLC and in the test with A498 renal was greater than 100 µM throughout.

Turning to `COc1cc(/C=C/C(=O)NC[C@]2(O)CCC3C4CCc5cc(O)ccc5C4CCC32C)ccc1O` (stereo partly drawn), the GI50 was 9.89 µM in the test on NCI/ADR-RES ovarian; 4.46 µM in the test on MDA-MB-435; 33.9 µM with SK-MEL-28 melanoma; 38.8 µM in the test with SK-MEL-2 melanoma; 23.8 µM in the test on OVCAR-8 ovarian; 34.1 µM in the test on SW-620 colon. In addition, the GI50 is 18 µM with MDA-MB-231 breast, 3.9 µM in the test on MOLT-4 leukemia, 13.9 µM in the test with EKVX NSCLC and 74.1 µM with A498 renal. The TGI in the test with NCI/ADR-RES ovarian was 54.3 µM; with MDA-MB-435, 37.5 µM; in the test with SK-MEL-28 melanoma it was greater than 100 µM; in the test with SK-MEL-2 melanoma it was greater than 100 µM; in the test on OVCAR-8 ovarian it was greater than 100 µM; in the test with SW-620 colon, greater than 100 µM. The TGI is greater than 100 µM with MDA-MB-231 breast, 32.7 µM with MOLT-4 leukemia, greater than 100 µM in the test with EKVX NSCLC and greater than 100 µM in the test with A498 renal.

Consider `Cc1c2cnccc2c(C)c2c1c1cc(C(=O)O)ccc1n2C`, for which the GI50 in the test on NCI/ADR-RES ovarian is 0.764 µM; in the test on MDA-MB-435 it was 1.33 µM; in the test on SK-MEL-28 melanoma it was 1.36 µM; in the test on SK-MEL-2 melanoma, 1.38 µM; with OVCAR-8 ovarian, 0.675 µM; in the test with SW-620 colon it was 0.49 µM. Also, the GI50 was 1.51 µM in the test on MDA-MB-231 breast, 0.53 µM in the test on MOLT-4 leukemia, 1.53 µM in the test with EKVX NSCLC and 0.41 µM in the test on A498 renal. For the same compound, the TGI is 5.5 µM in the test on NCI/ADR-RES ovarian; 3.4 µM with MDA-MB-435; 3.71 µM in the test with SK-MEL-28 melanoma; 4.03 µM with SK-MEL-2 melanoma; 8.3 µM in the test with OVCAR-8 ovarian; 6.7 µM with SW-620 colon. The TGI in the test on MDA-MB-231 breast is 5.81 µM; with MOLT-4 leukemia, 3.38 µM; in the test on EKVX NSCLC, 5.74 µM; in the test on A498 renal, 2.14 µM.

For the compound `CCN1/C(=C/C=C/C=C/c2sc3ccccc3[n+]2CC)Sc2ccccc21`, the GI50 in the test with NCI/ADR-RES ovarian is 2.99 µM; with MDA-MB-435 it was 0.314 µM; in the test on SK-MEL-28 melanoma it was 0.72 µM; in the test with SK-MEL-2 melanoma it was 0.979 µM; with OVCAR-8 ovarian it was 0.398 µM; with SW-620 colon, 0.379 µM. Moreover, the GI50 with MDA-MB-231 breast was 0.302 µM; with MOLT-4 leukemia, 0.234 µM; with EKVX NSCLC it was 0.122 µM; in the test with A498 renal, 0.943 µM. In addition, the TGI with NCI/ADR-RES ovarian is 16.7 µM; with MDA-MB-435, 1.31 µM; in the test with SK-MEL-28 melanoma, 2.75 µM; with SK-MEL-2 melanoma, 2.72 µM; in the test on OVCAR-8 ovarian, 2.58 µM; in the test with SW-620 colon, 1.84 µM. For the same compound, the TGI with MDA-MB-231 breast is 1.48 µM; with MOLT-4 leukemia it was 1.02 µM; in the test on EKVX NSCLC, 0.798 µM; with A498 renal, 4.12 µM.

Take `COc1cc([N+](=O)[O-])c(S(=O)(=O)O)cc1N`: the TGI with NCI/ADR-RES ovarian, with MDA-MB-435, with SK-MEL-28 melanoma, in the test with SK-MEL-2 melanoma, in the test on OVCAR-8 ovarian and in the test with SW-620 colon was greater than 100 µM in each case. Also, the TGI with MDA-MB-231 breast, in the test on MOLT-4 leukemia, in the test with EKVX NSCLC and with A498 renal was greater than 100 µM each time.

As for `Nc1ccc(-c2ccc(Nc3cc(S(=O)(=O)O)c(N)c4c3C(=O)c3ccccc3C4=O)cc2)c(S(=O)(=O)O)c1`, the TGI in the test on NCI/ADR-RES ovarian, in the test on MDA-MB-435, in the test on SK-MEL-28 melanoma, with SK-MEL-2 melanoma, in the test with OVCAR-8 ovarian and with SW-620 colon was greater than 100 µM each time. For the same compound, the TGI in the test on MDA-MB-231 breast, in the test with MOLT-4 leukemia, in the test on EKVX NSCLC and in the test on A498 renal was greater than 100 µM in each case.

With `S=c1nc[nH]c2nc[nH]c12`, the TGI was greater than 735 µM in the test with NCI/ADR-RES ovarian; greater than 750 µM with MDA-MB-435; greater than 750 µM in the test on SK-MEL-28 melanoma; > 100 µM and 664 µM and > 750 µM with SK-MEL-2 melanoma; > 100 µM and 739 µM and > 532 µM with OVCAR-8 ovarian; > 100 µM and 692 µM and > 750 µM in the test with SW-620 colon. For the same compound, the TGI with MDA-MB-231 breast is > 100 µM and 694 µM and > 750 µM; with MOLT-4 leukemia, 26.8 µM and 245 µM and 31.6 µM; with EKVX NSCLC, > 100 µM and 741 µM and > 750 µM; in the test with A498 renal, 584 µM and 187 µM. Besides, the GI50 in the test with MDA-MB-435 was 0.61 µM; with SK-MEL-28 melanoma it was 79.2 µM; with SK-MEL-2 melanoma it was > 100 µM and 26.2 µM; in the test on OVCAR-8 ovarian it was 3.74 µM and 35.5 µM; in the test with SW-620 colon, 3.97 µM and 15.1 µM; in the test on MOLT-4 leukemia it was 2.34 µM and 13.2 µM. Also, the GI50 with EKVX NSCLC was > 100 µM and 353 µM; in the test with A498 renal, 104 µM.
